Measurements as given in PMC4116505, “HER2-signaling pathway, JNK and ERKs kinases, and cancer stem-like cells are targets of Bozepinib” (Oncotarget, 2014).

How the values were obtained:
[1] = biological target: T1, VEGFR-1 (Homo sapiens, UniProt P17948); assay: 36-kinase panel, residual activity at […]; format: biochemical
T1 construct: gene FLT1

[2] = biological target: T2, HER2 (Homo sapiens, UniProt P04626); assay: 36-kinase panel, residual activity at […]; p-HER2 loss in SKBR-3 cells by western blot; format: biochemical
T2 construct: gene ERBB2
T2 sequence (P04626 23-1255): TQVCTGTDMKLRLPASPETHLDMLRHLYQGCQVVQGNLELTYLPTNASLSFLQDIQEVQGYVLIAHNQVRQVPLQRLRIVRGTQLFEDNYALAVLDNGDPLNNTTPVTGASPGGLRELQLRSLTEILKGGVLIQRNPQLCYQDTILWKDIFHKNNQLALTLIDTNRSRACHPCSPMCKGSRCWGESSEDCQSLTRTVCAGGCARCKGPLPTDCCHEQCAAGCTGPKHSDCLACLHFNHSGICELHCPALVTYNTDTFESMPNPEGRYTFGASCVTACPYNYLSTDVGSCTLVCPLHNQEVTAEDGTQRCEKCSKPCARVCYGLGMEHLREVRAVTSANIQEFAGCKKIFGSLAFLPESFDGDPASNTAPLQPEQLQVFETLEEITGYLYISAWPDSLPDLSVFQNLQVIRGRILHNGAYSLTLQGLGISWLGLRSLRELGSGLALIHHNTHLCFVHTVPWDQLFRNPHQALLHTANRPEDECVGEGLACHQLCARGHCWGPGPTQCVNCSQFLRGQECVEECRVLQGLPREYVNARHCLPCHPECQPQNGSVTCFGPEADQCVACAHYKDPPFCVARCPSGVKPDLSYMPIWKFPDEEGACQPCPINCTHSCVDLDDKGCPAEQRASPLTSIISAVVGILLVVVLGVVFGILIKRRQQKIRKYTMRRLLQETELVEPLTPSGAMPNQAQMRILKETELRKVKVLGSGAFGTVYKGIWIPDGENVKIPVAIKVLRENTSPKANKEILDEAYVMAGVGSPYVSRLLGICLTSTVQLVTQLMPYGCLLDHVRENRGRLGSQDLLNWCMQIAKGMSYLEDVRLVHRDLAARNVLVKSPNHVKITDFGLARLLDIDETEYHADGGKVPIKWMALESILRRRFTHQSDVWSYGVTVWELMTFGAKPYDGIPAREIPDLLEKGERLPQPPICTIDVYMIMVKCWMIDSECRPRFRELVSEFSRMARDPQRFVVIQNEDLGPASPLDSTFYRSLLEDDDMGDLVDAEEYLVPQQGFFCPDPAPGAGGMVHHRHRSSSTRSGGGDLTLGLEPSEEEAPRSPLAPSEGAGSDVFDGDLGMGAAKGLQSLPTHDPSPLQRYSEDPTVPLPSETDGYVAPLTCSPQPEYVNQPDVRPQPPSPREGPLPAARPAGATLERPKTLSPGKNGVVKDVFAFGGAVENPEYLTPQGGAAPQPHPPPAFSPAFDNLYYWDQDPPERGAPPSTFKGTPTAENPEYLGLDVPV

[3] = biological target: T3, AKT2 (Homo sapiens, UniProt P31751); assay: 36-kinase panel, residual activity at […]; format: biochemical
T3 sequence (P31751 whole entry): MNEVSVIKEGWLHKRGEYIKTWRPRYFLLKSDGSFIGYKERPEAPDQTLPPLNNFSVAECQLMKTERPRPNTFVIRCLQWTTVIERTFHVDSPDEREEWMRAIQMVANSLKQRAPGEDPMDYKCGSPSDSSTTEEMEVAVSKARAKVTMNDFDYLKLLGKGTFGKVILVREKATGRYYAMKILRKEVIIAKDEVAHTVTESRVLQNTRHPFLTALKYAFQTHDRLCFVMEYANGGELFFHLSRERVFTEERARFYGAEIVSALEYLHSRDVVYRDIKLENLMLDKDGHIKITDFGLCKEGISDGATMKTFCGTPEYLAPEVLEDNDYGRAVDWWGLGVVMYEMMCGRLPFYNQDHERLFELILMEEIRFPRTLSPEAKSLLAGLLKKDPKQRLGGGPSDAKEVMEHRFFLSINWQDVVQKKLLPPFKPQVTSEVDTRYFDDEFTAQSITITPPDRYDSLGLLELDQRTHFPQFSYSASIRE

[4] = biological target: T4, VEGFR-2 (Homo sapiens, UniProt P35968); assay: 36-kinase panel, residual activity at […]; format: biochemical
T4 construct: gene KDR
T4 sequence (P35968 20-1356): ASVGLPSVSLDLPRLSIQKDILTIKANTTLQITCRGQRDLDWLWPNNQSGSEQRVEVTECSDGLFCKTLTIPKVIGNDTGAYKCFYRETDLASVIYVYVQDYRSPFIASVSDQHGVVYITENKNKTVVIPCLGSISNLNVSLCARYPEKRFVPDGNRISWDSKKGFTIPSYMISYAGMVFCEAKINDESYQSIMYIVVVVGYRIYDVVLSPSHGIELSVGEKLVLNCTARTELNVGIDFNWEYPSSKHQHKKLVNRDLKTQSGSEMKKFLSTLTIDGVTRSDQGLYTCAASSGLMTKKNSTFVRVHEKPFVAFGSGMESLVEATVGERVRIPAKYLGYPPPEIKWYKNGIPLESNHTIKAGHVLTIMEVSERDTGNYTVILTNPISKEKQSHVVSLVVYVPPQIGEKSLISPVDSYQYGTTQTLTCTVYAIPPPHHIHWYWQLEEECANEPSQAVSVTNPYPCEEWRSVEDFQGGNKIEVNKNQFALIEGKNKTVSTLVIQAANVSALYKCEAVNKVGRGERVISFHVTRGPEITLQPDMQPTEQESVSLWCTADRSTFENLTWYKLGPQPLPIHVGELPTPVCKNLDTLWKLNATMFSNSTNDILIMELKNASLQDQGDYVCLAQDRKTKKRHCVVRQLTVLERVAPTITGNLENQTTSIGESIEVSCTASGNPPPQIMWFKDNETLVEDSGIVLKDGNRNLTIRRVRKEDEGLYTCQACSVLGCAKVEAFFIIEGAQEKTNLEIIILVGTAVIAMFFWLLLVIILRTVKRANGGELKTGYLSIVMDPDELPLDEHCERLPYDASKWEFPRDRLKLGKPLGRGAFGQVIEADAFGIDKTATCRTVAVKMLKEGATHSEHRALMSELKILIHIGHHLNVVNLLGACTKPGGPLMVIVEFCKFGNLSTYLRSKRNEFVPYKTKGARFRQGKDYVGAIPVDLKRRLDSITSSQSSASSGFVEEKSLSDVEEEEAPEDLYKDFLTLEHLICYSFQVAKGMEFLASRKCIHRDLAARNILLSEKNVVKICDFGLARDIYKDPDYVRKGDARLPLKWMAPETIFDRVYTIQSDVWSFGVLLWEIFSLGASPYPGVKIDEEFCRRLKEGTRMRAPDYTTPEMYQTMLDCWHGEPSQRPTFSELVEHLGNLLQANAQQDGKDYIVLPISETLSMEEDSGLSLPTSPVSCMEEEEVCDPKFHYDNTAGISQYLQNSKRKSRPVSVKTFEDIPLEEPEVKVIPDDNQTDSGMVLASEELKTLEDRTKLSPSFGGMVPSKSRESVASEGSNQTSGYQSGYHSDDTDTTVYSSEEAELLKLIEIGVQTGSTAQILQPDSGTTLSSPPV

[5] = biological target: T5, VEGFR-3 (Homo sapiens, UniProt P35916); assay: 36-kinase panel, residual activity at […]; format: biochemical
T5 construct: gene FLT4

[6] = biological target: T6, ERK2 (Homo sapiens, UniProt P28482); assay: biochemical; design: protein kinase panel (36 kinases), residual activity at two concentrations, singlicate
T6 construct: gene MAPK1
Procedure: (§1) The kinase inhibition profile of Bozepinib was determined using a panel of 36 protein kinases (Supplementary Table S1). Residual activity values were measured by testing each compound at two concentrations (5×10^−5 M and 5×10^−6 M) in singlicate for each kinase assay. Detailed methods for kinome analyses are provided in Supplementary Materials and Methods. […] Each experiment was repeated three times. Kinase Inhibition Assays Bozepinib was dissolved in volumes of 100% DMSO to reach stock concentrations of 5×10^-3 M/100% DMSO and 5×10^-4 M/100% DMSO, respectively. In the process, the 5×10^-3 M/100% DMSO and 5×10^-4 M/100% DMSO solutions were diluted with water to 5×10^-4 M/10% DMSO and 5×10^-5 M/10% DMSO in a 96 well microtiter plate directly before use. For every kinase, 5 μl from each of the 5×10^-4 M/10% DMSO and 5×10^-5 M/10% DMSO compound solutions were transferred into the assay plates. The To study the effect of Bozepinib on cancer proliferation pathways, we carried out an ex vivo multikinase screening assay (n=36) using 5μM and 50μM (Supplementary Table S3). […] In order to analyze whether Bozepinib inhibits the HER2 signaling pathways in breast cancer cells, we treated the HER2 positive SKBR-3 cell line with 5 μM of Bozepinib and we analyzed the expression and activation of proteins involved in HER2 signaling at different times post-treatment by western blot analysis (Fig. 1A). […] Moreover, we also detected both the inhibition of ERKs and JNK phosphorylation in MCF-7 and MDA-MB 468 breast cancer cell lines, that was more notable in MCF-7 cells at 4 hours post-treatment and in MDA-MB 468 cell line after 8 hours post-treatment (Fig. 1B and 1C).

[7] = biological target: CDK7/CycH/MAT1 (Homo sapiens, UniProt P50613); assay: biochemical; design: protein kinase panel (36 kinases), residual activity at two concentrations, singlicate
Procedure: as §1

[8] = biological target: T1, VEGFR-1; assay: biochemical; design: protein kinase panel (36 kinases), residual activity at two concentrations, singlicate
Procedure: as §1

[9] = biological target: AKT3 (Homo sapiens, UniProt Q9Y243); assay: biochemical; design: protein kinase panel (36 kinases), residual activity at two concentrations, singlicate
Procedure: as §1

[10] = biological target: T7, IKK-beta (Homo sapiens, UniProt O14920); assay: biochemical; design: protein kinase panel (36 kinases), residual activity at two concentrations, singlicate
T7 construct: gene IKBKB
Procedure: as §1

[11] = biological target: CDK9/CycT (Homo sapiens, UniProt P50750); assay: biochemical; design: protein kinase panel (36 kinases), residual activity at two concentrations, singlicate
Procedure: as §1

[12] = biological target: T8, STK23 (Homo sapiens, UniProt Q9UPE1); assay: biochemical; design: protein kinase panel (36 kinases), residual activity at two concentrations, singlicate
T8 construct: gene SRPK3
T8 sequence (Q9UPE1 whole entry): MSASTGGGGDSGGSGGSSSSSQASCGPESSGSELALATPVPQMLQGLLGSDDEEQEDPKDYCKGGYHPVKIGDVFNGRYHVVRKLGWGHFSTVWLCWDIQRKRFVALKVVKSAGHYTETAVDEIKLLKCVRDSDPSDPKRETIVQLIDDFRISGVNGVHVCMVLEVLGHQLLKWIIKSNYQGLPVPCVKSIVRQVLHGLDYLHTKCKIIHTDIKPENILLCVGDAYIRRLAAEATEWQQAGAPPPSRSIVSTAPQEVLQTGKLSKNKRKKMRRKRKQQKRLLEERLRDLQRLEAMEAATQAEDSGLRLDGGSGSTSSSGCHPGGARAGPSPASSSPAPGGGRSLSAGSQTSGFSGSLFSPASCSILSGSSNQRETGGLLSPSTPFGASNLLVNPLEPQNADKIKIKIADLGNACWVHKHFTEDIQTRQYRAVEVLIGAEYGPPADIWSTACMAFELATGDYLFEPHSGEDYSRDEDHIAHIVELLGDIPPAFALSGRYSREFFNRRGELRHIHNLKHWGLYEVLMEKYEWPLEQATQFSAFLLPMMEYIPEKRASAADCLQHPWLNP
Procedure: as §1

[13] = biological target: T9, P38-alpha (Homo sapiens, UniProt Q16539); assay: biochemical; design: protein kinase panel (36 kinases), residual activity at two concentrations, singlicate
T9 construct: gene MAPK14
Procedure: as §1

[14] = biological target: T10, IKK-epsilon (Homo sapiens, UniProt Q14164); assay: biochemical; design: protein kinase panel (36 kinases), residual activity at two concentrations, singlicate
T10 construct: gene IKBKE
Procedure: as §1

[15] = biological target: AKT1 (Homo sapiens, UniProt P31749); assay: biochemical; design: protein kinase panel (36 kinases), residual activity at two concentrations, singlicate
Procedure: as §1

[16] = biological target: T11, IKK- alpha (Homo sapiens, UniProt O15111); assay: biochemical; design: protein kinase panel (36 kinases), residual activity at two concentrations, singlicate
T11 construct: gene CHUK
Procedure: as §1

[17] = biological target: T12, PDK1 (Homo sapiens, UniProt O15530); assay: biochemical; design: protein kinase panel (36 kinases), residual activity at two concentrations, singlicate
T12 construct: gene PDPK1
Procedure: as §1

[18] = biological target: T5, VEGFR-3; assay: biochemical; design: protein kinase panel (36 kinases), residual activity at two concentrations, singlicate
Procedure: as §1

[19] = biological target: JAK3 (Homo sapiens, UniProt P52333); assay: biochemical; design: protein kinase panel (36 kinases), residual activity at two concentrations, singlicate
Procedure: as §1

[20] = biological target: EGFR (Homo sapiens, UniProt P00533); assay: biochemical; design: protein kinase panel (36 kinases), residual activity at two concentrations, singlicate
Procedure: as §1

[21] = biological target: T3, AKT2; assay: biochemical; design: protein kinase panel (36 kinases), residual activity at two concentrations, singlicate
Procedure: as §1

[22] = biological target: T4, VEGFR-2; assay: biochemical; design: protein kinase panel (36 kinases), residual activity at two concentrations, singlicate
Procedure: as §1

[23] = biological target: STK33 (Homo sapiens, UniProt Q9BYT3); assay: biochemical; design: protein kinase panel (36 kinases), residual activity at two concentrations, singlicate
Procedure: as §1

[24] = biological target: CDK6/CycD1 (Homo sapiens, UniProt Q00534); assay: biochemical; design: protein kinase panel (36 kinases), residual activity at two concentrations, singlicate
Procedure: as §1

[25] = biological target: T13, JNK1 (Homo sapiens, UniProt P45983); assay: biochemical; design: protein kinase panel (36 kinases), residual activity at two concentrations, singlicate
T13 construct: gene MAPK8
Procedure: as §1

[26] = biological target: T14, JNK3 (Homo sapiens, UniProt P53779); assay: biochemical; design: protein kinase panel (36 kinases), residual activity at two concentrations, singlicate
T14 construct: gene MAPK10
Procedure: as §1

[27] = biological target: RET (Homo sapiens, UniProt P07949); assay: biochemical; design: protein kinase panel (36 kinases), residual activity at two concentrations, singlicate
Procedure: as §1

[28] = biological target: CDK8/CycC (Homo sapiens, UniProt P49336); assay: biochemical; design: protein kinase panel (36 kinases), residual activity at two concentrations, singlicate
Procedure: as §1

[29] = biological target: T15, JNK2 (Homo sapiens, UniProt P45984); assay: biochemical; design: protein kinase panel (36 kinases), residual activity at two concentrations, singlicate
T15 construct: gene MAPK9
Procedure: as §1

[30] = biological target: T2, HER2; assay: biochemical; design: protein kinase panel (36 kinases), residual activity at two concentrations, singlicate
Procedure: as §1

[31] = biological target: T16, PKC-alpha (Homo sapiens, UniProt P17252); assay: biochemical; design: protein kinase panel (36 kinases), residual activity at two concentrations, singlicate
T16 construct: gene PRKCA
Procedure: as §1

[32] = read-out: Bozepinib 5 µM, residual activity %
[33] = read-out: Bozepinib 50 µM, residual activity %

T1 sequence (P17948 27-1338): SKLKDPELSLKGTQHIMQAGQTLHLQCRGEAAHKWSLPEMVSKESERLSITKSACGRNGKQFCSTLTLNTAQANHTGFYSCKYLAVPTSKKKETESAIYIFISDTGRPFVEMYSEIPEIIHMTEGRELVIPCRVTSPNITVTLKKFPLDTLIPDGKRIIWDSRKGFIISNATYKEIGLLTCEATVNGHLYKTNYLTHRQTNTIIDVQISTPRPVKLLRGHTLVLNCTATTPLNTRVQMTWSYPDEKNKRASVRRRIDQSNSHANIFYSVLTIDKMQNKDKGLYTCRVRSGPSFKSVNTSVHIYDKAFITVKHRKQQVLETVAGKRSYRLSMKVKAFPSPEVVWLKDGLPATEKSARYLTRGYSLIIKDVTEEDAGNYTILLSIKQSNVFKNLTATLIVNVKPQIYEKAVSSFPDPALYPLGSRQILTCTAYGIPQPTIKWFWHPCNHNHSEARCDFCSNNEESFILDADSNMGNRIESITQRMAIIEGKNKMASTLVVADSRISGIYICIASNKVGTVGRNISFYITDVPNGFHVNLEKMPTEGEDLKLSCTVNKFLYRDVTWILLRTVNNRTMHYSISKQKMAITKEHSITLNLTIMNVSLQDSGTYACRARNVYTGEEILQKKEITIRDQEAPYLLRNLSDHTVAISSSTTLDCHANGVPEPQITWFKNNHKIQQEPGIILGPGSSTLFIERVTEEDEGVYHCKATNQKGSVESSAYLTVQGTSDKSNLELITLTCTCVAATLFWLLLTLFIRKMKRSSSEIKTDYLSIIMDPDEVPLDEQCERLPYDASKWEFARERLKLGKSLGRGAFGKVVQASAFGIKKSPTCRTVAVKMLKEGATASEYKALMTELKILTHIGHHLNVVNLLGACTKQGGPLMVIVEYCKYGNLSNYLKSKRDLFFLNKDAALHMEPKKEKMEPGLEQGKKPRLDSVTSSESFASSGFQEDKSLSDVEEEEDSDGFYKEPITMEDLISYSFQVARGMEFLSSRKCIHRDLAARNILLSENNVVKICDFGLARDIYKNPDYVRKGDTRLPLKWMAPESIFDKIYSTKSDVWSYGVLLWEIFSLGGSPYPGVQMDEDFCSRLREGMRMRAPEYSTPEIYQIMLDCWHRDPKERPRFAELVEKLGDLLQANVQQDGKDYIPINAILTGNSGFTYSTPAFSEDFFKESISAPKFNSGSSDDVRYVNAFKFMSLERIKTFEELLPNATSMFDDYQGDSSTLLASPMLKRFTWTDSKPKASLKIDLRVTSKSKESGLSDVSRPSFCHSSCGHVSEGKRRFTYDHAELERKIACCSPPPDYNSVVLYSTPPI

- remaining activity at 5 µM [6, 32]: 104%
- remaining activity at 50 µM [6, 33]: 50%
- remaining activity at 5 µM [7, 32]: 96%
- remaining activity at 50 µM [7, 33]: 69%
- remaining activity at 5 µM [8, 32]: 91%
- remaining activity at 50 µM [8, 33]: 18%
- remaining activity at 5 µM [9, 32]: 98%
- remaining activity at 50 µM [9, 33]: 88%
- remaining activity at 5 µM [10, 32]: 113%
- remaining activity at 50 µM [10, 33]: 78%
- remaining activity at 5 µM [11, 32]: 102%
- remaining activity at 50 µM [11, 33]: 69%
- remaining activity at 5 µM [12, 32]: 95%
- remaining activity at 50 µM [12, 33]: 89%
- remaining activity at 5 µM [13, 32]: 115%
- remaining activity at 50 µM [13, 33]: 57%
- remaining activity at 5 µM [14, 32]: 113%
- remaining activity at 50 µM [14, 33]: 71%
- remaining activity at 5 µM [15, 32]: 96%
- remaining activity at 50 µM [15, 33]: 78%
- remaining activity at 5 µM [16, 32]: 104%
- remaining activity at 50 µM [16, 33]: 51%
- remaining activity at 5 µM [17, 32]: 41%
- remaining activity at 50 µM [17, 33]: 27%
- remaining activity at 5 µM [18, 32]: 84%
- remaining activity at 50 µM [18, 33]: 13%
- remaining activity at 5 µM [19, 32]: 94%
- remaining activity at 50 µM [19, 33]: 43%
- remaining activity at 5 µM [20, 32]: 84%
- remaining activity at 50 µM [20, 33]: 17%
- remaining activity at 5 µM [21, 32]: 100%
- remaining activity at 50 µM [21, 33]: 43%
- remaining activity at 5 µM [22, 32]: 82%
- remaining activity at 50 µM [22, 33]: 13%
- remaining activity at 5 µM [23, 32]: 102%
- remaining activity at 50 µM [23, 33]: 72%
- remaining activity at 5 µM [24, 32]: 95%
- remaining activity at 50 µM [24, 33]: 64%
- remaining activity at 5 µM [25, 32]: 45%
- remaining activity at 50 µM [25, 33]: 29%
- remaining activity at 5 µM [26, 32]: 81%
- remaining activity at 50 µM [26, 33]: 43%
- remaining activity at 5 µM [27, 32]: 79%
- remaining activity at 50 µM [27, 33]: 14%
- remaining activity at 5 µM [28, 32]: 109%
- remaining activity at 50 µM [28, 33]: 72%
- remaining activity at 5 µM [29, 32]: 77%
- remaining activity at 50 µM [29, 33]: 37%
- remaining activity at 5 µM [30, 32]: 101%
- remaining activity at 50 µM [30, 33]: 25%
- remaining activity at 5 µM [31, 32]: 86%
- remaining activity at 50 µM [31, 33]: 24%
Structure (SMILES): O=[N+]([O-])c1ccc(S(=O)(=O)N2CC(n3cnc4c(Cl)nc(Cl)nc43)OCc3ccccc32)cc1 (racemic) [Bozepinib, (RS)-2,6-dichloro-9-[1-(p-nitrobenzenesulfonyl)-1,2,3,5-tetrahydro-4,1-benzoxazepin-3-yl]-9H-purine]
- 36-kinase panel, residual activity at 5 and 50 μM [1]: showed inhibitory effects against VEGFR-1, VEGFR-2 and VEGFR-3 in the kinome assay
- 36-kinase panel, residual activity at 5 and 50 μM; p-HER2 loss in SKBR-3 cells b [2]: HER2, AKT2 and VEGF receptors were considerably inhibited in the screening (Supplementary Table S3)
- 36-kinase panel, residual activity at 5 and 50 μM [3]: HER2, AKT2 and VEGF receptors were considerably inhibited in the screening (Supplementary Table S3)
- 36-kinase panel, residual activity at 5 and 50 μM [4]: showed inhibitory effects against VEGFR-1, VEGFR-2 and VEGFR-3 in the kinome assay
- 36-kinase panel, residual activity at 5 and 50 μM [5]: showed inhibitory effects against VEGFR-1, VEGFR-2 and VEGFR-3 in the kinome assay
